This note sets out measurements from patent publication US20110190269A1, “GAMMA SECRETASE MODULATORS” (priority 2010, published 2011).

Structures can show the parent of a compound that is named as a salt.

The test has as its system γ-secretase. As to the kind of experiment: Cellular γ-secretase assay (inhibition of Aβ42 secretion). In kind it is cell-based. The note with it: human neuroglioma H4 cells overexpressing human APP, 22 hrs incubation. The method, boiled down: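 H4 neuroglioma cells overexpressing human APP got a ten-point compound dilution (0.4% DMSO final) for 22 h at 37 °C. Secreted Aβ42 in the supernatant was measured by electrochemiluminescence sandwich immunoassay (capture biotinylated 6E10, detection ruthenylated BAP15). IC50 came from a nonlinear regression fit.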
As a reminder, the EC50 is the concentration needed to bring the measured effect to its halfway point. The low end stands for a more potent agent, the high end for a less potent agent. Turning to `COc1cc(Nc2nc3c(-c4ccc(Cl)cc4)cccn3n2)ccc1-c1ccnc(C)c1` [Example 127, [8-(4-Chloro-phenyl)-[1,2,4]triazolo[1,5-a]pyridin-2-yl]-[3-methoxy-4-(2-methyl-pyridin-4-yl)-phenyl]-amine], the EC50 came out at 39 nM.

The compound `COc1cc(Nc2nc3c(N4CCC(F)CC4)cccn3n2)ccc1-n1cnc(C)c1` [Example 139, 8-(4-fluoropiperidin-1-yl)-N-(3-methoxy-4-(4-methyl-1H-imidazol-1-yl)phenyl)-[1,2,4]triazolo[1,5-a]pyridin-2-amine] showed an EC50 of 311 nM. This EC50 lies about 8-fold higher than the previous one.

On to `COc1cc(Nc2nc3nccc(-c4ccc(C#N)cc4)n3n2)ccc1-n1cnc(C)c1` [Example 35, 4-{2-[3-Methoxy-4-(4-methyl-imidazol-1-yl)-phenylamino]-[1,2,4]triazolo[1,5-a]pyrimidin-7-yl}-benzonitrile], for which the EC50 was determined as 5930 nM.

With `COc1cc(Nc2nc3ccnc(-c4ccc(F)cc4)n3n2)ccc1-n1cnc(C)c1` [Example 45, [5-(4-Fluoro-phenyl)-[1,2,4]triazolo[1,5-c]pyrimidin-2-yl]-[3-methoxy-4-(4-methyl-imidazol-1-yl)-phenyl]-amine], the EC50 was 1400 nM.

`COc1cc(Nc2nc3c(C)cnc(N4CCCC4)n3n2)ccc1-n1cnc(C)c1` [Example 60, [3-Methoxy-4-(4-methyl-imidazol-1-yl)-phenyl]-(8-methyl-5-pyrrolidin-1-yl-[1,2,4]triazolo[1,5-c]pyrimidin-2-yl)-amine] registered an EC50 of 672 nM. This EC50 lies about 2.1-fold lower than the previous one.

Compound `COc1cc(Nc2nc3nc(C(F)(F)F)cc(-c4cnccn4)n3n2)ccc1-n1cnc(C)c1` [Example 41, [3-Methoxy-4-(4-methyl-imidazol-1-yl)-phenyl]-(7-pyrazin-2-yl-5-trifluoromethyl-[1,2,4]triazolo[1,5-a]pyrimidin-2-yl)-amine] showed an EC50 of 4310 nM.

As for `COc1ccc(-c2cc(C)cn3nc(Nc4ccc(-n5cnc(C)c5)c(OC)c4)nc23)c(OC)c1` [Example 84, 8-(2,4-Dimethoxyphenyl)-N-(3-methoxy-4-(4-methyl-1H-imidazol-1-yl)phenyl)-6-methyl-[1,2,4]triazolo[1,5-a]pyridin-2-amine], a half-maximal response (EC50) required 321 nM.

`COCc1cnc(-c2ccccc2)n2nc(Nc3ccc(-n4cnc(C)c4)c(OC)c3)nc12` [Example 27, [3-Methoxy-4-(4-methyl-imidazol-1-yl)-phenyl]-(8-methoxymethyl-5-phenyl-[1,2,4]triazolo[1,5-c]pyrimidin-2-yl)-amine] showed an EC50 of 742 nM.

`COc1cc(Nc2nc3nc4c(c(-c5ccccc5)n3n2)CCCC4)ccc1-n1cnc(C)c1` [Example 21, [3-Methoxy-4-(4-methyl-imidazol-1-yl)-phenyl]-(9-phenyl-5,6,7,8-tetrahydro-[1,2,4]triazolo[5,1-b]quinazolin-2-yl)-amine acetate]: a half-maximal response (EC50) required 201 nM. Against the preceding compound, the EC50 is about 3.7-fold lower.

Consider `COc1cc(Nc2nc3c(-c4ccc(F)cc4Cl)cc(C)cn3n2)ccc1-n1cnc(C)c1` [Example 65, [8-(2-Chloro-4-fluoro-phenyl)-6-methyl-[1,2,4]triazolo[1,5-a]pyridin-2-yl]-[3-methoxy-4-(4-methyl-imidazol-1-yl)-phenyl]-amine], for which it took 24 nM to reach a half-maximal effect (EC50).

In turn, `COc1cc(Nc2nc3nccc(-c4ccc(C(F)(F)F)cc4)n3n2)ccc1-n1cnc(C)c1` [Example 36, [3-Methoxy-4-(4-methyl-imidazol-1-yl)-phenyl]-[7-(4-trifluoromethyl-phenyl)-[1,2,4]triazolo[1,5-a]pyrimidin-2-yl]-amine] yielded an EC50 of 573 nM. Compared with the last compound, the EC50 is about 24-fold higher.

`COc1cc(Nc2nc3c(C4=CCOCC4)cccn3n2)ccc1-n1cnc(C)c1` [Example 149, [8-(3,6-Dihydro-2H-pyran-4-yl)-[1,2,4]triazolo[1,5-a]pyridin-2-yl]-[3-methoxy-4-(4-methyl-imidazol-1-yl)-phenyl]-amine] gave an EC50 of 370 nM.

`COc1cc(Nc2nc3n(n2)CCN(C(=O)C(C)C)C3c2ccc(F)cc2)ccc1-n1cnc(C)c1` (stereo not shown) [Example 59, 1-(8-(4-Fluorophenyl)-2-(3-methoxy-4-(4-methyl-1H-imidazol-1-yl)phenylamino)-5,6-dihydro-[1,2,4]triazolo[1,5-a]pyrazin-7(8H)-yl)-2-methylpropan-1-one]: a half-maximal effect (EC50) was put at 590 nM.

The compound `COc1cc(Nc2nc3c(-c4ccc(F)cc4)cccn3n2)ccc1-n1cnc(C)c1` [Example 10, [8-(4-Fluoro-phenyl)-[1,2,4]triazolo[1,5-a]pyridin-2-yl]-[3-methoxy-4-(4-methyl-imidazol-1-yl)-phenyl]-amine] yielded an EC50 of 60 nM.

`COc1cc(Nc2nc3cccc(N4CCCCCC4)n3n2)ccc1-n1cnc(C)c1` [Example 31, (5-Azepan-1-yl-[1,2,4]triazolo[1,5-a]pyridin-2-yl)-[3-methoxy-4-(4-methyl-imidazol-1-yl)-phenyl]-amine] displayed an EC50 of 587 nM.

Compound `COc1cc(Nc2nc3n(n2)CCCC3c2ccc(F)cc2)ccc1-n1cnc(C)c1` (single isomer, unassigned) [Example 52] showed an EC50 of 280 nM.

As to `COc1cc(Nc2nc3c(-c4ccc(F)cc4)cc(C4CC4)cn3n2)ccc1-n1cnc(C)c1` [Example 118, [6-Cyclopropyl-8-(4-fluoro-phenyl)-[1,2,4]triazolo[1,5-a]pyridin-2-yl]-[3-methoxy-4-(4-methyl-imidazol-1-yl)-phenyl]-amine], a half-maximal effect (EC50) was put at 72 nM.

On to `COc1cc(Nc2nc3ccc(C)c(C)n3n2)ccc1-n1cnc(C)c1` [Example 50, (5,6-Dimethyl-[1,2,4]triazolo[1,5-a]pyridin-2-yl)-[3-methoxy-4-(4-methyl-imidazol-1-yl)-phenyl]-amine], for which the midpoint of the response, the EC50, lay at 400 nM.

In the case of `CCOC(=O)N1CC=C(c2cc(C)cn3nc(Nc4ccc(-n5cnc(C)c5)c(OC)c4)nc23)CC1` [Example 107, Ethyl 4-(2-(3-methoxy-4-(4-methyl-1H-imidazol-1-yl)phenylamino)-6-methyl-[1,2,4]triazolo[1,5-a]pyridin-8-yl)-5,6-dihydropyridine-1(2H)-carboxylate], the response was half-maximal at 356 nM (EC50). This EC50 and that of the compound before are within 1.5-fold of each other.

Take `COc1cc(Nc2nc3n(n2)C(c2ccc(F)cc2)CCC3)ccc1-n1cnc(C)c1` (stereo not shown) [Example 2, [5-(4-Fluoro-phenyl)-5,6,7,8-tetrahydro-[1,2,4]triazolo[1,5-a]pyridin-2-yl]-[3-methoxy-4-(4-methyl-imidazol-1-yl)-phenyl]-amine]: the EC50 was found to be 320 nM.

For `COc1cc(Nc2nc3cccc(-c4ccc(F)cc4)n3n2)ccc1-c1ccnc(C)c1` [Example 54, 5-(4-Fluorophenyl)-N-(3-methoxy-4-(2-methylpyridin-4-yl)phenyl)-[1,2,4]triazolo[1,5-a]pyridin-2-amine], the EC50 turned out to be 110 nM.

For the compound `COc1cc(Nc2nc3c(OC)cccn3n2)ccc1-n1cnc(C)c1` [Example 7, [3-Methoxy-4-(4-methyl-imidazol-1-yl)-phenyl]-(8-methoxy-[1,2,4]triazolo[1,5-a]pyridin-2-yl)-amine], it took 930 nM to reach a half-maximal effect (EC50).

The compound `COc1cc(Nc2nc3n(n2)CCCN3c2ccc(F)c(F)c2)ccc1-n1cnc(C)c1` [Example 143, 4-(3,4-Difluorophenyl)-N-(3-methoxy-4-(4-methyl-1H-imidazol-1-yl)phenyl)-4,5,6,7-tetrahydro-[1,2,4]triazolo[1,5-a]pyrimidin-2-amine] registered an EC50 of 185 nM.

As for `COc1cc(Nc2nc3c(-c4ccc(F)c(C(F)(F)F)c4)cc(C)cn3n2)ccc1-n1cnc(C)c1` [Example 75, 8-(4-Fluoro-3-(trifluoromethyl)phenyl)-N-(3-methoxy-4-(4-methyl-1H-imidazol-1-yl)phenyl)-6-methyl-[1,2,4]triazolo[1,5-a]pyridin-2-amine], a half-maximal response (EC50) required 19 nM.

For `COc1cc(Nc2nc3c(-c4ccc(Cl)cc4)cc(C4CC4)cn3n2)ccc1-n1cnc(C)c1` [Example 117, [8-(4-Chloro-phenyl)-6-cyclopropyl-[1,2,4]triazolo[1,5-a]pyridin-2-yl]-[3-methoxy-4-(4-methyl-imidazol-1-yl)-phenyl]-amine], the EC50 was found to be 65 nM.

`COc1cc(Nc2nc3c(N4CCC(F)(F)CC4)cccn3n2)ccc1-n1cnc(C)c1` [Example 141, 8-(4,4-difluoropiperidin-1-yl)-N-(3-methoxy-4-(4-methyl-1H-imidazol-1-yl)phenyl)-[1,2,4]triazolo[1,5-a]pyridin-2-amine]: it took 375 nM to reach a half-maximal effect (EC50).

For the compound `COc1cc(Nc2nc3cncc(-c4ccc(F)cc4)n3n2)ccc1-n1cnc(C)c1` [Example 9, [5-(4-Fluoro-phenyl)-[1,2,4]triazolo[1,5-a]pyrazin-2-yl]-[3-methoxy-4-(4-methyl-imidazol-1-yl)-phenyl]-amine], the EC50 was 200 nM.

On to `COc1cc(Nc2nc3nccc(-c4ccc(F)c(Cl)c4)n3n2)ccc1-n1cnc(C)c1` [Example 73, 7-(3-Chloro-4-fluorophenyl)-N-(3-methoxy-4-(4-methyl-1H-imidazol-1-yl)phenyl)-[1,2,4]triazolo[1,5-a]pyrimidin-2-amine hydrochloride], for which it took 359 nM to reach a half-maximal effect (EC50). This EC50 lies about 1.8-fold higher than the previous one.

`COc1cc(Nc2nc3nc(C(F)(F)F)cc(C(F)(F)F)n3n2)ccc1-n1cnc(C)c1` [Example 26, (5,7-Bis-trifluoromethyl-[1,2,4]triazolo[1,5-a]pyrimidin-2-yl)-[3-methoxy-4-(4-methyl-imidazol-1-yl)-phenyl]-amine] gave an EC50 of 312 nM.

`COc1cc(Nc2nc3c(-c4ccc(F)c(Cl)c4)cc(C4CC4)cn3n2)ccc1-n1cnc(C)c1` [Example 147, [8-(3-Chloro-4-fluoro-phenyl)-6-cyclopropyl-[1,2,4]triazolo[1,5-a]pyridin-2-yl]-[3-methoxy-4-(4-methyl-imidazol-1-yl)-phenyl]-amine]: the EC50 stood at 33 nM. Compared with the last compound, the EC50 is about 9.5-fold lower.

For `COc1cc(Nc2nc3c(-c4ccc(F)cc4Cl)cccn3n2)ccc1-n1cnc(C)c1` [Example 131, 8-(2-chloro-4-fluorophenyl)-N-(3-methoxy-4-(4-methyl-1H-imidazol-1-yl)phenyl)-[1,2,4]triazolo[1,5-a]pyridin-2-amine], the EC50 was determined as 38 nM.
